PMC5826148, “Whole-Cell Screen of Fragment Library Identifies Gut Microbiota Metabolite Indole Propionic Acid as Antitubercular” (Antimicrobial Agents and Chemotherapy, 2018)
In brackets after ≈: the same amount, converted by molar mass. Like-named read-outs stand apart in the source and are kept apart here.

Key:
[1] = test system: M. tuberculosis H37Rv; assay: Mouse model of acute M. tuberculosis infection; conditions: for Lungs CFU log10, mean difference from drug-free control / Spleen CFU log10, mean difference from drug-free control: Day 42, IPA 100 mg/kg, oral gavage 6 days/week, 4 weeks
[2] = test system: Staphylococcus aureus; assay: Spectrum of activity: S. aureus growth inhibition; type: cell-based; conditions: LB medium, overnight, read-out: Antibacterial activity (MIC50) S. aureus
[3] = test system: mice; conditions: 100 mg/kg oral on three consecutive days, monitored 7 days
[4] = test system: M. bovis BCG Pasteur; assay: microbe, parasite or virus in culture; type: cell-based; conditions: for MIC50: Mycobacterium tuberculosis variant bovis BCG, BCG, read-out: Antibacterial activity (MIC50) M. bovis BCG
[5] = test system: M. tuberculosis H37Rv; assay: M. tuberculosis growth inhibition dose-response (MIC50), turbidity readout; type: cell-based, Mycobacterium tuberculosis; conditions: H37Rv, 10 days, read-out: Antibacterial activity (MIC50) M. tuberculosis
[6] = Pharmacokinetic study in uninfected CD-1 mice; conditions: for AUC(0-t) / Cmax: Ave +/- SD, n=3
[7] = Cytotoxicity assay, THP-1 cells (CellTiter 96 AQueous One); conditions: human
[8] = Endogenous plasma levels of IPA in naive mice
[9] = design: method as in PMID 24563545; conditions: cited from earlier work
[10] = Cytotoxicity assay, HepG2 cells (CellTiter 96 AQueous One); conditions: human, HepG2 cells
[11] = test system: M. avium; assay: Spectrum of activity: M. avium growth inhibition; type: cell-based; conditions: 4 days, read-out: Antibacterial activity (MIC50) M. avium
[12] = test system: M. abscessus; assay: Spectrum of activity: M. abscessus growth inhibition; type: cell-based; conditions: 3 days, read-out: Antibacterial activity (MIC50) M. abscessus
[13] = test system: M. tuberculosis; assay: Growth inhibition in acidic medium (pH 6.2); type: cell-based, Mycobacterium tuberculosis; conditions: pH 6.2, read-out: Activity (MIC50) in acidic medium (pH 6.2)
[14] = test system: Escherichia coli; assay: Spectrum of activity: E. coli growth inhibition; type: cell-based; conditions: LB medium, overnight, read-out: Antibacterial activity (MIC50) E. coli
[15] = test system: human red blood cells (RBCs); assay: Red blood cell lysis assay; conditions: hemolysis
[16] = test system: M. smegmatis; assay: Spectrum of activity: M. smegmatis growth inhibition; type: cell-based; conditions: 1 day, read-out: Antibacterial activity (MIC50) M. smegmatis
[17] = test system: M. tuberculosis H37Rv; assay: Bactericidal activity, CFU enumeration on agar after treatment; type: cell-based, Mycobacterium tuberculosis; conditions: M. tuberculosis, 1 mM, log CFU/ml reduction from initial inoculum; for log reduction at 1000 µM: Mycobacterium tuberculosis, H37RV, read-out: Bactericidal activity (log reduction) at 1 mM
[18] = test system: THP-1 cells; assay: Cytotoxicity assay, THP-1 cells (CellTiter 96 AQueous One); conditions: read-out: Cytotoxicity THP-1 cells CC50; 24 h
[19] = test system: HepG2 cells; assay: Cytotoxicity assay, HepG2 cells (CellTiter 96 AQueous One); conditions: read-out: Cytotoxicity HepG2 cells CC50; 24 h
[20] = Mycobacterium tuberculosis, 240 h
[21] = Mycobacteroides abscessus, 72 h
[22] = Mycolicibacterium smegmatis, 24 h

## O=C(O)CCc1c[nH]c2ccccc12 [Fragment F1]
[1]; 100 mg/kg oral, 6 days/week for 4 weeks
  reduction of bacterial load in the spleen versus untreated mice: 7 fold
[1]; 100 mg/kg, six consecutive days per week for 4 weeks, infected mice
  adverse events or abnormal behavior over the course of drug treatment: None of the animals showed signs of adverse events or abnormal behavior
[1]; INH 25 mg/kg
  Lungs CFU log10, mean difference from drug-free control: -0.28 log10 CFU
  Spleen CFU log10, mean difference from drug-free control: -0.82 log10 CFU
[2]; Staphylococcus aureus
  MIC50: > 500 µM
[3]
  Acute toxicity: behavior and gross pathology of major organs: None of the mice showed abnormal behavior
[4]
  MIC50: 98 µM (≈ 18.5 µg/mL)
[5]; [20]
  MIC50: 68 µM (≈ 12.9 µg/mL)
[6]; 100 mg/kg oral
  time plasma levels above the MIC50: more than 50 % of the dosing interval
[6]; CD-1, mouse, plasma, iv, 5 mg/kg
  Vd: 0.25 L/kg
[6]; CD-1, mouse, plasma, iv, 5 mg/kg, AUC[0-8], Intravenous 5 mg/kg
  AUC(0-t): 72 ± 3 µg·h/mL
[6]; CD-1, mouse, plasma, po, 100 mg/kg, AUC[0-8], Oral 100 mg/kg in CMC (suspension)
  AUC(0-t): 315 ± 88 µg·h/mL
[6]; CD-1, mouse, plasma, po, 100 mg/kg, AUC[0-8], Oral 100 mg/kg in PEG (solution)
  AUC(0-t): 312 ± 59 µg·h/mL
[6]; CD-1, mouse, plasma, po, 100 mg/kg, AUC[0-24], Oral 100 mg/kg in CMC (suspension)
  AUC(0-t): 442 ± 271 µg·h/mL
[6]; CD-1, mouse, plasma, po, 100 mg/kg, AUC[0-24], Oral 100 mg/kg in PEG (solution)
  AUC(0-t): 471 ± 129 µg·h/mL
[6]; CD-1, mouse, plasma, po, 100 mg/kg, Oral 100 mg/kg in CMC (suspension)
  Cmax: 67 ± 28 µg/mL
[6]; CD-1, mouse, plasma, po, 100 mg/kg, Oral 100 mg/kg in PEG (solution)
  Cmax: 118 ± 10 µg/mL
[6]; CD-1, mouse, plasma, po, 100 mg/kg, F (oral bioavailability), Oral 100 mg/kg in CMC (suspension)
  bioavailability: 30.8%
[6]; CD-1, mouse, plasma, po, 100 mg/kg, F (oral bioavailability), Oral 100 mg/kg in PEG (solution)
  bioavailability: 32.9%
[6]; CD-1, mouse, plasma, po, 100 mg/kg, oral bioavailability, 100 mg/kg oral
  bioavailability: 30 to 33%
[7]
  CC50 at 24 h: > 1000 µM
[8]; time 0.25 h
  Endogenous plasma level, Average: 589 ng/mL
[8]; time 1 h
  Endogenous plasma level, Average: 514 ng/mL
[8]; time 3 h
  Endogenous plasma level, Average: 455 ng/mL
[8]; time 5 h
  Endogenous plasma level, Average: 404 ng/mL
[8]; time 8 h
  Endogenous plasma level, Average: 629 ng/mL
[9]
  logarithm of partition coefficient between n-octanol and water: 2.15
[10]
  CC50 at 24 h: > 1000 µM
[11]; Mycobacterium avium, 96 h
  MIC50: 119 µM (≈ 22.5 µg/mL)
[12]; [21]
  MIC50: > 500 µM
[13]; Mycobacterium tuberculosis
  MIC50: 62 µM (≈ 11.7 µg/mL)
[14]; Escherichia coli
  MIC50: > 500 µM
[15]
  RBCs HC50: >1,000 μM
[16]; [22]
  MIC50: 477 µM (≈ 90.3 µg/mL)
[17]
  log reduction at 1000 µM: 1.76

## NC(=S)COc1cccc(Cl)c1 [Fragment F13, 2-(3-Chlorophenoxy) ethanethioamide]
[2]
  MIC50: >500 µM
[4]
  Antibacterial activity (MIC50) M. bovis BCG: >500 µM
[5]
  MIC50: 211 µM (≈ 42.6 µg/mL)
[18]
  CC50: 656 µM
[19]
  CC50: 467 µM
[11]
  MIC50: 387 µM (≈ 78 µg/mL)
[12]
  MIC50: 289 µM (≈ 58.3 µg/mL)
[13]
  MIC50: 75 µM (≈ 15.1 µg/mL)
[14]
  MIC50: >500 µM
[15]
  RBCs HC50: 904 µM
[16]
  MIC50: 409 µM (≈ 82.5 µg/mL)
[17]
  Bactericidal activity (log reduction) at 1 mM: 0.90 log reduction

## CNCc1ccccc1Oc1ccccc1 [Fragment F23, Methyl[(2-phenoxyphenyl)methyl]amine]
[2]; Staphylococcus aureus
  MIC50: > 500 µM
[4]
  MIC50: 347 µM (≈ 74 µg/mL)
[5]; [20]
  MIC50: 305 µM (≈ 65.1 µg/mL)
[7]
  CC50 at 24 h: 976 µM
[10]
  CC50 at 24 h: 789 µM
[11]; Mycobacterium avium, 96 h
  MIC50: > 500 µM
[12]; [21]
  MIC50: > 500 µM
[13]; Mycobacterium tuberculosis
  MIC50: > 500 µM
[14]; Escherichia coli
  MIC50: > 500 µM
[15]
  RBCs HC50: >1,000 μM
[16]; [22]
  MIC50: > 500 µM
[17]
  log reduction at 1000 µM: 1.22

## Cc1ccc(-c2cc(C(=O)O)c(C)o2)cc1 [Fragment F24, 2-Methyl-5-(4-methylphenyl)-3-furoic acid]
[2]; Staphylococcus aureus
  MIC50: > 500 µM
[4]
  MIC50: 193 µM (≈ 41.7 µg/mL)
[5]; [20]
  MIC50: 316 µM (≈ 68.3 µg/mL)
[7]
  CC50 at 24 h: 887 µM
[10]
  CC50 at 24 h: 984 µM
[11]; Mycobacterium avium, 96 h
  MIC50: 458 µM (≈ 99 µg/mL)
[12]; [21]
  MIC50: > 500 µM
[13]; Mycobacterium tuberculosis
  MIC50: 120 µM (≈ 25.9 µg/mL)
[14]; Escherichia coli
  MIC50: > 500 µM
[15]
  RBCs HC50: >1,000 μM
[16]; [22]
  MIC50: > 500 µM
[17]
  log reduction at 1000 µM: 2.02

## O=C(O)c1csc2ccc(Cl)cc12 [Fragment F25, 5-Chloro-1-benzothiophene-3-carboxylic acid]
[2]; Staphylococcus aureus
  MIC50: > 500 µM
[4]
  MIC50: 367 µM (≈ 78 µg/mL)
[5]; [20]
  MIC50: 319 µM (≈ 67.8 µg/mL)
[7]
  CC50 at 24 h: 876 µM
[10]
  CC50 at 24 h: 765 µM
[11]; Mycobacterium avium, 96 h
  MIC50: 489 µM (≈ 104 µg/mL)
[12]; [21]
  MIC50: 257 µM (≈ 54.7 µg/mL)
[13]; Mycobacterium tuberculosis
  MIC50: 94 µM (≈ 20 µg/mL)
[14]; Escherichia coli
  MIC50: > 500 µM
[15]
  RBCs HC50: 945 µM
[16]; [22]
  MIC50: 98 µM (≈ 20.8 µg/mL)
[17]
  log reduction at 1000 µM: 2.1

## O=C(O)c1ccc(-c2ccsc2)cc1 [Fragment F26, 4-(3-Thienyl)benzoic acid]
[2]; Staphylococcus aureus
  MIC50: > 500 µM
[4]
  MIC50: > 500 µM
[5]; [20]
  MIC50: 320 µM (≈ 65.4 µg/mL)
[7]
  CC50 at 24 h: 978 µM
[10]
  CC50 at 24 h: 944 µM
[11]; Mycobacterium avium, 96 h
  MIC50: > 500 µM
[12]; [21]
  MIC50: 497 µM (≈ 102 µg/mL)
[13]; Mycobacterium tuberculosis
  MIC50: 125 µM (≈ 25.5 µg/mL)
[14]; Escherichia coli
  MIC50: > 500 µM
[15]
  RBCs HC50: >1,000 μM
[16]; [22]
  MIC50: > 500 µM
[17]
  log reduction at 1000 µM: 1.35

## Oc1noc2cc(Cl)ccc12 [Fragment F27, 6-Chlorobenzo[d]isoxazol-3-ol]
[2]; Staphylococcus aureus
  MIC50: > 500 µM
[4]
  MIC50: > 500 µM
[5]; [20]
  MIC50: 395 µM (≈ 67 µg/mL)
[7]
  CC50 at 24 h: 777 µM
[10]
  CC50 at 24 h: > 1000 µM
[11]; Mycobacterium avium, 96 h
  MIC50: > 500 µM
[12]; [21]
  MIC50: > 500 µM
[13]; Mycobacterium tuberculosis
  MIC50: 210 µM (≈ 35.6 µg/mL)
[14]; Escherichia coli
  MIC50: > 500 µM
[15]
  RBCs HC50: >1,000 μM
[16]; [22]
  MIC50: > 500 µM
[17]
  log reduction at 1000 µM: 1.05

## OCc1csc(-c2ccc(C(F)(F)F)cc2)n1 [Fragment F28, {2-[4-(Trifluoromethyl)phenyl]-1,3-thiazol-4-yl}methanol]
[2]; Staphylococcus aureus
  MIC50: > 500 µM
[4]
  MIC50: 398 µM (≈ 103 µg/mL)
[5]; [20]
  MIC50: 434 µM (≈ 113 µg/mL)
[7]
  CC50 at 24 h: 940 µM
[10]
  CC50 at 24 h: > 1000 µM
[11]; Mycobacterium avium, 96 h
  MIC50: 325 µM (≈ 84.3 µg/mL)
[12]; [21]
  MIC50: 253 µM (≈ 65.6 µg/mL)
[13]; Mycobacterium tuberculosis
  MIC50: 215 µM (≈ 55.7 µg/mL)
[14]; Escherichia coli
  MIC50: > 500 µM
[15]
  RBCs HC50: 786 µM
[16]; [22]
  MIC50: 235 µM (≈ 60.9 µg/mL)
[17]
  log reduction at 1000 µM: 1.21

## Oc1ccc(Oc2ccccc2)cc1 [Fragment F29, 4-Phenoxyphenol]
[2]; Staphylococcus aureus
  MIC50: 348 µM (≈ 64.8 µg/mL)
[4]
  MIC50: 387 µM (≈ 72.1 µg/mL)
[5]; [20]
  MIC50: 439 µM (≈ 81.7 µg/mL)
[7]
  CC50 at 24 h: 145 µM
[10]
  CC50 at 24 h: 202 µM
[11]; Mycobacterium avium, 96 h
  MIC50: 411 µM (≈ 76.5 µg/mL)
[12]; [21]
  MIC50: 267 µM (≈ 49.7 µg/mL)
[13]; Mycobacterium tuberculosis
  MIC50: 118 µM (≈ 22 µg/mL)
[14]; Escherichia coli
  MIC50: 201 µM (≈ 37.4 µg/mL)
[15]
  RBCs HC50: 912 µM
[16]; [22]
  MIC50: 250 µM (≈ 46.6 µg/mL)
[17]
  log reduction at 1000 µM: 1.09

## NNC(=O)c1ccncc1 [INH, isoniazid, reference compound]
[1]; INH 25 mg/kg
  Lungs CFU log10, mean difference from drug-free control: -3.82 log10 CFU
  Spleen CFU log10, mean difference from drug-free control: -5.49 log10 CFU
[1]; INH 25 mg/kg, 4 weeks of monotherapy
  effect on bacterial load of spleen: sterilized the spleen
